According to PMC3692431, “Anticonvulsant Activity of B2, an Adenosine Analog, on Chemical Convulsant-Induced Seizures” (PLoS ONE, 2013):

What was measured:
[1] = system: PTZ-induced seizures; test: PTZ-induced seizures with adenosine receptor antagonist pretreatment; type: in vivo, mice; conditions: B2 5 mg/kg; PTZ 85 mg/kg; P<0.05
Experimental: KA was dissolved in saline and the pH was adjusted to neutrality. The final concentration of KA was 0.7 µg/µl, and the convulsant dose was 1 µl (i.c.v.). […] The selective adenosine receptor antagonist DPCPX or SCH58261 was administered (i.p.) 5 min before administration of B2 or vehicle.
Twenty min later, mice were admdinistered with PTZ (85 mg/kg).

[2] = biological target: T1, A2A adenosine receptor (Rattus norvegicus, UniProt P30543); test: Radioligand binding, [3H]MSX-2 displacement in rat striatal membranes; conditions: 0.75 nM [3H]MSX-2
T1 construct: from tissue; host or cells: striatum of male Wistar rats
T1 sequence (P30543 whole entry): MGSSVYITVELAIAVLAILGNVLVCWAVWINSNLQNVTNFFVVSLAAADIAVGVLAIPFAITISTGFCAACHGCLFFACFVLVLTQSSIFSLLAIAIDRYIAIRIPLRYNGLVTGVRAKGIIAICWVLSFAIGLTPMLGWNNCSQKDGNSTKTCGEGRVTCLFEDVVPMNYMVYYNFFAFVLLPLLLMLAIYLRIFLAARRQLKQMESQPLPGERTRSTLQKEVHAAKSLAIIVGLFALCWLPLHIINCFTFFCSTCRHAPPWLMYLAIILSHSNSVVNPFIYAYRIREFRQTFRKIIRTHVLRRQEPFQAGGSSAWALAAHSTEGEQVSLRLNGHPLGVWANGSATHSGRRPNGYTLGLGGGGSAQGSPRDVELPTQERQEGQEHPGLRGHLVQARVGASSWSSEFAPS
Experimental: Male Wistar rats were sacrificed. The cerebral cortex and striatum were then removed and homogenized in 10 volumes of ice-cold 50 mM Tris–HCl buffer (pH 7.4). The homogenates were centrifuged (48,000 ×g) at 4°C for 10 min, the supernatant decanted, and the pellet resuspended in the same volume of buffer before being centrifuged again. The final pellets were resuspended in 50 mM Tris–HCl buffer containing adenosine deaminase (1.2 U per mg of protein) to remove endogenous adenosine.
Binding affinity at adenosine A2A receptors was tested in rat striatal membranes using 0.75 nM [^3H]MSX-2 (104.8 Ci/mmol). The binding assay was carried out in Tris–HCl buffer (50 mM, pH 7.4) as previously described, [12]. Briefly, assays were performed by first incubating the mixtures on a shaking water-bath at 25°C for 30 min. Termination of the incubation was performed by rapid filtration through GF/B glass fiber filters. The radioactivity on the filter was measured using a scintillation counter. […] Inhibition curves were determined using eight different concentrations ranging from 10^−5 to 10^−8 M. The inhibition constants (Ki) were calculated using an equation from Cheng and Prusoff.

[3] = system: c-Fos expression in the hippocampus; test: PTZ-induced c-Fos expression, immunohistochemistry; type: in vivo, mice; conditions: B2 5 mg/kg, PTZ 85 mg/kg, 2 h
Experimental: Mice were injected with either B2 (5 mg/kg) or vehicle 20 min before administration of PTZ (85 mg/kg). Two hours later, mice were either anesthetized for c-Fos analysis using immunohistochemistry or decapitated or western blotting.
Mice were anesthetized with chloral hydrate (400 mg/kg, i.p.) and perfused through the heart with saline solution followed by ice-cold 4% paraformaldehyde (PFA) in 0.1 M phosphate buffer (pH 7.4). Their brains were then removed, post-fixed in 4% PFA for 24 h at 4°C, and immersed in 30% sucrose at 4°C until they sank. Thereafter, coronal sections (30 µm) were cut using a freezing microtome (Leica RM2125).
Sections were immunostained using previously described methods. Sections were first immersed in 0.3% Triton X-100 for 10 min at room temperature, and then in 3% hydrogen peroxide for 10 min to quench endogenous peroxidase activity. Sections were then rinsed twice in 10 mM phosphate-buffered saline (pH 7.2) containing 0.3% Triton X-100. This was followed by incubation with diluted normal blocking serum (Vector Elite ABC kit) for 30 min and then 1∶800 rabbit polyclonal anti-c-Fos (primary) antibodies overnight at 4°C. Biotinylated secondary antibody solutions and VectaStain® Elite ABC reagents were applied. The peroxidase reaction was visualized using DAB with nickel ammonium sulfate for black staining. Sections were mounted, dehydrated and cover slipped. […]

[4] = biological target: T2, recombinant human adenosine A1 receptor (Homo sapiens, UniProt P30542); test: cAMP accumulation assay in CHO cells expressing A1 receptor; type: cell-based; conditions: CHO cells stably expressing human A1 receptor; forskolin-stimulated cAMP; read-out: EC50, decrease of cellular cAMP level
T2 construct: expressed in transfected cells; host or cells: CHO cells (provided by Professor R. B. Su)
T2 sequence (P30542 1-326): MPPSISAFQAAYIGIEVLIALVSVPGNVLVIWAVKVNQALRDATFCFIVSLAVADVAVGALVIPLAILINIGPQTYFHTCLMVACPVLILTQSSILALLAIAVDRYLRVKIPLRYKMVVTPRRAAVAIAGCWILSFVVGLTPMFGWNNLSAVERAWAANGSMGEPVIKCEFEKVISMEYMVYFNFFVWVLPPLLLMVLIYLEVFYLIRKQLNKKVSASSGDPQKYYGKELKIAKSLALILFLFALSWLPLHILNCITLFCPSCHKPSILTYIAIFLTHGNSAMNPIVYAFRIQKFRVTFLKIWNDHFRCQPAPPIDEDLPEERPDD
Experimental: (§1) Chinese hamster ovary (CHO) cells expressing recombinant human A1/A2A receptors (provided by Professor R. B. Su of the Institute of Pharmacology and Toxicology, Academy of Military Medical Sciences, Beijing, China) were cultured in Dulbecco’s Modified Eagles Medium with the F12 nutrient mixture (DMEM/F12) containing no nucleosides, and with 10% fetal calf serum, penicillin (100 U/ml), streptomycin (100 µg/ml), L-glutamine (2 mM), and Geneticin at 37°C in a 5% CO2/95% atmosphere. The cells used to determine cAMP levels had viability >95%, as assessed by trypan blue exclusion.
(§2) Intracellular cyclic adenosine monophosphate (cAMP) levels were measured using a competitive protein binding method. To measure A1/A2A receptor-mediated accumulation of cAMP, cells were grown as confluent monolayers in 24-well cluster dishes. The cells were washed twice with 2 mL of medium containing 20 mM HEPES that had been prewarmed to 37°C, pH 7.4. The cells were then preincubated for 15 min in 0.4 mL fresh medium containing 30 µM of the cAMP phosphodiesterase inhibitor rolipram. B2 was added in 0.1 mL of medium and incubations continued for 15 min. The reaction was then terminated by removing the supernatant, and cells were lysed with the addition of 500 µl of 0.1 M ice-cold HCl. The cell lysate was centrifuged (4,000×g) at 4°C for 10 min. […] Bound radioactivity was measured by liquid scintillation spectrometry.

[5] = biological target: T3, recombinant human adenosine A2A receptor (Homo sapiens, UniProt P29274); test: cAMP accumulation assay in CHO cells expressing A2A receptor; type: cell-based; conditions: CHO cells expressing human A2A receptors; read-out: EC50, elevation of cAMP levels
T3 construct: expressed in transfected cells; host or cells: CHO cells (provided by Professor R. B. Su)
T3 sequence (P29274 whole entry): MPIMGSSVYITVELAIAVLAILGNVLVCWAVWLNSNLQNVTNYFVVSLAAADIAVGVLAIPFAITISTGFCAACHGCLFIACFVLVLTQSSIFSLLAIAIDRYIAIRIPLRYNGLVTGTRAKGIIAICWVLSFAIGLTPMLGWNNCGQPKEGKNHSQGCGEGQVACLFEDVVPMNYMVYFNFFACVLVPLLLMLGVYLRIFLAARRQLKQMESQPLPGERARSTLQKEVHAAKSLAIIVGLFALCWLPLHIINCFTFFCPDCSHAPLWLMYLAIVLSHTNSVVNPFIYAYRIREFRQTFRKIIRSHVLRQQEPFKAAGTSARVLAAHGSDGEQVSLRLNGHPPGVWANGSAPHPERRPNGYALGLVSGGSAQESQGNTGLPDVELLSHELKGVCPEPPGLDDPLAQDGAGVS
Experimental: as §1, §2

**Q.** `COc1cc(CNc2ncnc3c2ncn3[C@@H]2O[C@H](CO)[C@@H](O)[C@H]2O)ccc1O` [B2, N^6-(3-methoxyl-4-hydroxybenzyl) adenine riboside] was tested. Which “effect on latency to seizure onset” value [1] did it give?
**A.** significantly prolonged

**Q.** What about the Ki [2] of the same compound?
**A.** 370 nM

**Q.** What about the “effect on PTZ-induced increase of c-Fos expression in the CA2/3 region” value [3] of the same compound?
**A.** minor effect

**Q.** What about the “effect on PTZ-induced increase of c-Fos expression in the dentate gyrus and CA1” value [3] of the same compound?
**A.** significantly reversed

**Q.** What about the EC50 [4] of the same compound?
**A.** 180 nM

**Q.** What about the EC50 [5] of the same compound?
**A.** 320 nM
